Values quoted from earlier work in paper PMC7682800 (Arteriosclerosis, Thrombosis, and Vascular Biology, 2020).

Tested on: PAR1
Details: oral administration

**Q.** For `CCOC(=O)N[C@@H]1CC[C@@H]2[C@@H](C1)C[C@H]1C(=O)O[C@H](C)[C@H]1[C@H]2/C=C/c1ccc(-c2cccc(F)c2)cn1` [vorapaxar], which Pharmacodynamic half-life is on record?
**A.** The Pharmacodynamic half-life was at least 4 weeks.
